Experimental findings from patent publication US8329686B2, “Isatin analogues and uses therefor” (Washington University, priority 2006, dated 2012) are described below.

Where two headings read alike, the source gives them in different places. Bounds are passed on as bounds.

Assay type in all cases: biochemical
The target in one experiment is T1, caspase 1 (Homo sapiens, UniProt P29466).
T1 construct: purchased BIOMOL Research Laboratories (Plymouth Meeting, Pa.)
T1 sequence (P29466 120-297 limits assumed): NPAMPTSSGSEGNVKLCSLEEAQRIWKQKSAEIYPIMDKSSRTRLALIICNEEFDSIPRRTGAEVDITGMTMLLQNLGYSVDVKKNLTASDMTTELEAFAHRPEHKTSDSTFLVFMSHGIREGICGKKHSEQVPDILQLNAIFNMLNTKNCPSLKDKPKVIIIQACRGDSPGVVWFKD
T1 sequence (P29466 317-404 limits assumed): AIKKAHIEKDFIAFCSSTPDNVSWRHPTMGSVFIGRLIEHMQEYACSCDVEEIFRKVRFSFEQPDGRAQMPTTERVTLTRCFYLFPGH
Description: Enzyme inhibition assay, caspase 1 (fluorogenic Ac-YVAD-AMC).

The target of a further experiment is T2, caspase-3 (Homo sapiens, UniProt P42574).
T2 construct: purchased Sigma-Aldrich (St. Louis, Mo.)
T2 sequence (P42574 29-175 limits assumed): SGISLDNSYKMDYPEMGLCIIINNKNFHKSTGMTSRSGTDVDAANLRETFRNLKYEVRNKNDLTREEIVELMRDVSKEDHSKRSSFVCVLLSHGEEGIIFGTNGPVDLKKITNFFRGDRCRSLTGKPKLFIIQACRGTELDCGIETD
T2 sequence (P42574 176-277 limits assumed): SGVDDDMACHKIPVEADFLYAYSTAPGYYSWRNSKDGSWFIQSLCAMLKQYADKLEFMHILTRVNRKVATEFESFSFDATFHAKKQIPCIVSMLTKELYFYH
Description: Enzyme inhibition assay, caspase 3 (fluorogenic Ac-DEVD-AMC).

The next experiment addresses T3, caspase 6 (Homo sapiens, UniProt P55212).
T3 construct: purchased Sigma-Aldrich (St. Louis, Mo.)
T3 sequence (P55212 24-179 limits assumed): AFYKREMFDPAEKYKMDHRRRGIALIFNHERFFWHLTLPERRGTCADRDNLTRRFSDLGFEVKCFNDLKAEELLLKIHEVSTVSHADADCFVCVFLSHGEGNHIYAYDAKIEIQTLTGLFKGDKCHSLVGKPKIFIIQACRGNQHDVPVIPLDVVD
T3 sequence (P55212 194-293 limits assumed): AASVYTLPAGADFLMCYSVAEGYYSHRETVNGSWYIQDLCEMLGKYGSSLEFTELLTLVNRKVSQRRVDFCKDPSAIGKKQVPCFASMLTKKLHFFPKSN
Nature of the experiment: Enzyme inhibition assay, caspase 6 (fluorogenic Ac-VEID-AMC).

The next experiment has as its target T4, caspase 7 (Homo sapiens, UniProt P55210).
T4 construct: purchased Sigma-Aldrich (St. Louis, Mo.)
T4 sequence (P55210 24-198 limits assumed): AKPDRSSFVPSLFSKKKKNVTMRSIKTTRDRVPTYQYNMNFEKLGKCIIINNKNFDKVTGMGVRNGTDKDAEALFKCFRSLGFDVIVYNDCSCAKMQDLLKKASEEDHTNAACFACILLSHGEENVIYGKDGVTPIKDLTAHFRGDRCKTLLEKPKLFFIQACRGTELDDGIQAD
T4 sequence (P55210 207-303 limits assumed): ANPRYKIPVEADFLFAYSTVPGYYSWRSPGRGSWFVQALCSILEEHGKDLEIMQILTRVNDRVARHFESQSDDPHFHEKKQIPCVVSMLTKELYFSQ
Description: Enzyme inhibition assay, caspase 7 (fluorogenic Ac-DEVD-AMC).

The next experiment has as its target T5, caspase 8 (Homo sapiens, UniProt Q14790).
T5 construct: purchased Sigma-Aldrich (St. Louis, Mo.)
Nature of the experiment: Enzyme inhibition assay, caspase 8 (fluorogenic Ac-IETD-AMC).

[1] abbreviates: Table 2, read-out: IC50 (nM) Caspase 1.
The mark [2] stands for this setting: Table 7, read-out: IC50 (nM) Casp-1.
The mark [3] stands for this setting: Table 2, read-out: IC50 (nM) Caspase 3.
Where [4] appears, read: Table 7, read-out: IC50 (nM) Casp-3.
Setting [5] is: Table 2, read-out: IC50 (nM) Caspase 6.
Setting [6] is: Table 7, read-out: IC50 (nM) Casp-6.
Setting [7] is: Table 2, read-out: IC50 (nM) Caspase 7.
Setting [8] is: Table 7, read-out: IC50 (nM) Casp-7.
The mark [9] stands for this setting: Table 2, read-out: IC50 (nM) Caspase 8.
Setting [10] is: Table 7, read-out: IC50 (nM) Casp-8.

T5 sequence (Q14790 217-374 limits assumed): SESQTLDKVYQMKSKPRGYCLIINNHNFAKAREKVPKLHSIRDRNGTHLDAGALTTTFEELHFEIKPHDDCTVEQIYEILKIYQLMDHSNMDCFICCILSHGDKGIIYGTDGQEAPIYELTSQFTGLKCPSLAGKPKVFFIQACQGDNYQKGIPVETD
T5 sequence (Q14790 385-479 limits assumed): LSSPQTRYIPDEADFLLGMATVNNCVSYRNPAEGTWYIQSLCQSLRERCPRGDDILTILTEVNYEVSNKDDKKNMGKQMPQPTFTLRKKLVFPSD
Description for caspase 1: (§1) Enzyme Assays. Inhibition of recombinant human caspase-3 and other caspases by the isatin analogues was assessed using a fluorometric assay by measuring the accumulation of a fluorogenic product, 7-amino-4-methylcoumarin (7-AMC).
(§2) Enzyme Inhibition Assays. Recombinant human caspases (3, 6, 7, and 8) and their peptide-specific substrates (Ac-DEVDAMC, Ac-VEID-AMC, Ac-DEVD-AMC, and Ac-IETD-AMC, respectively) were purchased from Sigma-Aldrich (St. Louis, Mo.) with the exception of caspase 1 and its substrate (Ac-YVAD-AMC), which were obtained from BIOMOL Research Laboratories (Plymouth Meeting, Pa.). The enzymatic activity of caspases was determined by measuring the accumulation of the fluorogenic product 7-amino-4-methylcoumarin (AMC). All assays were prepared in 96-well format at a volume of 210 μL per well and consisted of 100 mM Na+ HEPES (pH 7.4), 10% sucrose, 100 mM NaCl, 0.1% CHAPS, 5 mM 2-mercaptoethanol, 2 mM EDTA, 10 μM Ac-YVAD-AMC (caspase 1); 20 mMNa^+ HEPES (pH 7.4), 10% sucrose, 100 mMNaCl, 0.1% CHAPS, 2 mM EDTA, 10 μM Ac-DEVD-AMC (caspase 3); 20 mM Na^+ HEPES (pH 7.4), 10% sucrose, 100 mM NaCl, 0.1% CHAPS, 2 mM EDTA, 10 μM Ac-VEID-AMC (caspase 6); 20 mM Na+ HEPES (pH 7.4), 100 mM NaCl, 10% sucrose, 0.1% CHAPS, 5 mM 2-mercaptoethanol, 2 mM EDTA, 10 μM Ac-DEVD-AMC (caspase 7); 20 mM Na+ HEPES (pH 7.4), 10% sucrose, 100 mM NaCl, 0.1% CHAPS, 2 mM EDTA, 10 μM Ac-IETD-AMC (caspase 8).
(§3) Recombinant caspases were first assayed to determine the optimal concentration for each experiment. Optimal concentrations were based in the linear range of the enzyme activation curves. Peptide inhibitors with known IC50 values were tested together with the compounds as a control for each caspase assay. […] Peptide and nonpeptide inhibitors were dissolved in DMSO, and a 2 serial dilution was performed prior to screening in order to obtain desired concentrations. 10 μL was added to each well containing 100 μL caspase solution and allowed to incubate on ice for 30 min. […] The final concentration of DMSO in all wells was 5% of the total volume. In caspase-1 and caspase-7 assays, 10 mM 2-mercaptoethanol was added to the substrate solution for full activation of the enzymes.
(§4) Compounds were tested in duplicate, and IC50 curves were calculated for all inhibitors assayed. Final IC50s were the average of three independent experiments.
Description for caspase 6: as §1, §2, §3, §4
Description for caspase 7: as §1, §2, §3, §4
Description for caspase 8: as §1, §2, §3, §4
Description for caspase-3: as §1, §2, §3, §4

For the molecule `CN1C(=O)C(=C(C#N)C#N)c2cc(S(=O)(=O)N3CCCC3COc3ccccc3)ccc21` (stereo not drawn) [Compound 27a, 2-[1-Methyl-2-oxo-5-(2-phenoxymethyl-pyrrolidine-1-sulfonyl)-1,2-dihydro-indol-3-yl-idene]-malononitrile], the IC50 (commonly the concentration that inhibits the measured activity by half) on caspase 1 (setting [1]) turned out to be 2820 nM; on caspase 1 (setting [2]), 2820 ± 248 nM; on caspase-3 (setting [3]), 119 ± 4 nM; at caspase-3 (setting [4]), 119 ± 4 nM; at caspase 6 (setting [5]), 698 ± 94 nM; at caspase 6 (setting [6]) it was 698 ± 94 nM. Also, the IC50 was 785 ± 276 nM on caspase 7 (setting [7]), 785 ± 276 nM on caspase 7 (setting [8]), greater than 50000 nM at caspase 8 (setting [9]) and greater than 50000 nM on caspase 8 (setting [10]).

On to `N#CC(C#N)=C1C(=O)N(Cc2ccccc2)c2ccc(S(=O)(=O)N3CCCC3COc3ccccc3)cc21` (stereo not drawn) [Compound 27b, 2-[1-Benzyl-2-oxo-5-(2-phenoxymethyl-pyrrolidine-1-sulfonyl)-1,2-dihydroindol-3-yl-idene]-malononitrile], for which the IC50 was 6220 nM against caspase 1; 27.8 ± 2.5 nM at caspase-3 (IC50 (nM) Casp-3, Table 7); 27.8 ± 2.5 nM at caspase-3 (IC50 (nM) Caspase 3, Table 2); 27.8 nM against caspase-3 (IC50 for caspase-3); 918 ± 151 nM against caspase 6; 51.7 ± 6.2 nM at caspase 7 (IC50 (nM) Casp-7, Table 7). The IC50 on caspase 7 (IC50 (nM) Caspase 7, Table 2) was 51.7 ± 6.2 nM; against caspase 7 (IC50 for caspase-7), 51.7 nM; at caspase 8 (setting [9]), greater than 50000 nM; at caspase 8 (setting [10]), greater than 50000 nM.

`N#CC(C#N)=C1C(=O)N(Cc2ccc(O)cc2)c2ccc(S(=O)(=O)N3CCC[C@H]3COc3ccccc3)cc21` [Compound 27c]: the half-inhibitory concentration (IC50) on caspase 1 (setting [1]) turned out to be 2300 nM; on caspase 1 (setting [2]), 2300 ± 250 nM; on caspase-3 (setting [3]) it was 31.8 ± 6.2 nM; at caspase-3 (setting [4]) it was 31.8 ± 6.2 nM; on caspase-3 (read-out: IC50 for caspase-3), 31.8 nM; on caspase 6 (setting [5]) it was 744 ± 48 nM. In addition, the IC50 is 744 ± 48 nM on caspase 6 (setting [6]); 126 ± 19 nM at caspase 7 (setting [7]); 126 ± 19.3 nM at caspase 7 (setting [8]); 126 nM on caspase 7 (read-out: IC50 for caspase-7); greater than 50000 nM at caspase 8 (setting [9]); greater than 50000 nM on caspase 8 (setting [10]).

With `N#CC(C#N)=C1C(=O)N(Cc2ccc(Br)cc2)c2ccc(S(=O)(=O)N3CCCC3COc3ccccc3)cc21` (stereo not drawn) [Compound 27d, 2-[1-(4-Bromo-benzyl)-2-oxo-5-(2-phenoxymethyl-pyrrolidine-1-sulfonyl)-1,2-dihydro-indol-3-yl-idene]-malononitrile], the IC50 on caspase 1 (setting [1]) turned out to be 5700 nM; on caspase 1 (setting [2]), 5700 ± 850 nM; at caspase-3 (setting [3]), 20.1 ± 1.3 nM; on caspase-3 (setting [4]), 20.1 ± 1.3 nM; on caspase-3 (read-out: IC50 for caspase-3), 20.1 nM; at caspase 6 (setting [5]), 840 ± 125 nM. For the same molecule, the IC50 on caspase 6 (setting [6]) is 840 ± 125 nM; on caspase 7 (setting [7]), 92.2 ± 11.8 nM; at caspase 7 (setting [8]) it was 92.2 ± 11.8 nM; on caspase 7 (read-out: IC50 for caspase-7), 92.2 nM; at caspase 8 (setting [9]), greater than 50000 nM; on caspase 8 (setting [10]), greater than 50000 nM.

`O=C1C(=O)N(Cc2ccc(O)cc2)c2ccc(S(=O)(=O)N3CCCC3COc3cccnc3)cc21` (stereo not drawn) [Compound 28b, 1-(4-Hydroxy-benzyl)-5-[2-(pyridin-3-yl-oxymethyl)-pyrrolidine-1-sulfonyl]-1H-indole-2,3-dione]: the IC50 at caspase 1 (setting [2]) is greater than 15000 nM; on caspase-3 (IC50 (nM) Casp-3, Table 7), 3.9 ± 0.6 nM; on caspase 6, 9550 ± 354 nM; at caspase 7 (IC50 (nM) Casp-7, Table 7), 11.7 ± 1 nM; on caspase 8 (setting [10]) it was greater than 50000 nM.

On to `N#CC(C#N)=C1C(=O)N(Cc2ccccc2)c2ccc(S(=O)(=O)N3CCCC3COc3cccnc3)cc21` (stereo not drawn) [Compound 30a, 2-{1-Benzyl-2-oxo-5-[2-(pyridine-3-yloxymethyl)-pyrrolidine-1-sulfonyl]-1,2-dihydro-indol-3-yl-idene}-malononitrile], for which the IC50 was 3250 nM against caspase 1; 3250 ± 450 nM on caspase 1 (IC50 (nM) Casp-1, Table 7); 2700 to 3200 nM at caspase 1 (read-out: IC50 for caspase-1); 7.6 ± 1.1 nM against caspase-3 (IC50 (nM) Casp-3, Table 7); 7.6 ± 1.1 nM against caspase-3 (IC50 (nM) Caspase 3, Table 2); 7.6 nM at caspase-3 (IC50 for caspase-3). Besides, the IC50 was 823 ± 86 nM at caspase 6; 515 to 770 nM at caspase 6 (read-out: IC50 for caspase-6); 32.8 ± 4.9 nM on caspase 7 (IC50 (nM) Casp-7, Table 7); 32.8 ± 4.9 nM at caspase 7 (IC50 (nM) Caspase 7, Table 2); 32.8 nM on caspase 7 (IC50 for caspase-7); greater than 50000 nM at caspase 8 (setting [9]). In addition, the IC50 on caspase 8 (setting [10]) and on caspase 8 (read-out: IC50 for caspase-8) was greater than 50000 nM throughout.

In the case of `N#CC(C#N)=C1C(=O)N(Cc2ccc(O)cc2)c2ccc(S(=O)(=O)N3CCCC3COc3cccnc3)cc21` (stereo not drawn) [Compound 30b, 2-{1-(4-Hydroxy-benzyl)-2-oxo-5-[2-(pyridine-3-yloxymethyl)-pyrrolidine-1-sulfonyl]-1,2-dihydro-indol-3-yl-idene}-malononitrile], the IC50 at caspase 1 was 2720 nM; on caspase 1 (IC50 (nM) Casp-1, Table 7), 2720 ± 580 nM; at caspase 1 (read-out: IC50 for caspase-1) it was 2700 to 3200 nM; on caspase-3 (IC50 (nM) Casp-3, Table 7) it was 7.8 ± 1.9 nM; on caspase-3 (IC50 (nM) Caspase 3, Table 2), 7.8 ± 1.9 nM; on caspase-3 (IC50 for caspase-3) it was 7.8 nM. In addition, the IC50 against caspase 6 is 650 ± 22 nM; at caspase 6 (setting [5]), 850 ± 21 nM; on caspase 6 (read-out: IC50 for caspase-6) it was 515 to 770 nM; at caspase 7 (IC50 (nM) Casp-7, Table 7), 28.3 ± 5.4 nM; against caspase 7 (IC50 (nM) Caspase 7, Table 2), 28.3 ± 5.4 nM; against caspase 7 (IC50 for caspase-7), 28.6 nM. The IC50 on caspase 8 (setting [9]), at caspase 8 (setting [10]) and at caspase 8 (read-out: IC50 for caspase-8) was greater than 50000 nM throughout.
